# pIC50: −log10 of the molar value.
# Key:
# LNCaP [1] = assay: Potency index, ratio of enzalutamide IC50 to compound IC50 for human LNCAP cells; format: functional
# LNCaP [2] = assay: Antiproliferative activity against human LNCAP cells assessed as relative inhibition after 96 hrs by propidium iodide staining based fluorescence 2D monolayer assay; format: functional, cell-based
# VCaP [3] = assay: Antiproliferative activity against human VCaP cells after 96 hrs by propidium iodide staining based fluorescence 2D monolayer assay; format: functional, cell-based
# [4] = 33000 µM
# Description: Solubility in 100% DMSO at 33 mM at -20 degC
# CWR22R [5] = assay: Antiproliferative activity against human 22Rv1 cells assessed as relative inhibition after 96 hrs by propidium iodide staining based fluorescence 2D monolayer assay; format: functional, cell-based; settings: 22Rv1, 96 h
# VCaP [6] = assay: Antiproliferative activity against human VCaP cells assessed as relative inhibition after 96 hrs by propidium iodide staining based fluorescence 2D monolayer assay; format: functional, cell-based
# CWR22R [7] = assay: Antiproliferative activity against human 22Rv1 cells after 96 hrs by propidium iodide staining based fluorescence 2D monolayer assay; format: functional, cell-based; settings: 22Rv1, 96 h
# [8] = 96 h
# Description: Solubility in RPMI1640 culture medium at <30 uM incubated for 4 days by microscopic analysis
# DU-145 [9] = assay: Antiproliferative activity against human DU145 cells assessed as relative inhibition after 96 hrs by propidium iodide staining based fluorescence 2D monolayer assay; format: functional, cell-based; settings: DU-145, 96 h
# DU-145 [10] = assay: Antiproliferative activity against human DU145 cells after 96 hrs by propidium iodide staining based fluorescence 2D monolayer assay; format: functional, cell-based; settings: DU-145, 96 h
# [11] = molecular target: T1, Androgen receptor (Rattus norvegicus) (UniProt P15207); assay: (§1) Antagonist activity at rat androgen receptor fused with DNA-binding domain of GAL4 expressed in AR-UAS-bla GripTite 293 cells assessed as inhibition of R1881-induced receptor activation preincubated for 30 mins followed by R1881 addition measured after 16 to 24 hrs by betalactamase reporter gene assay; format: cell-based
# T1 sequence (whole entry): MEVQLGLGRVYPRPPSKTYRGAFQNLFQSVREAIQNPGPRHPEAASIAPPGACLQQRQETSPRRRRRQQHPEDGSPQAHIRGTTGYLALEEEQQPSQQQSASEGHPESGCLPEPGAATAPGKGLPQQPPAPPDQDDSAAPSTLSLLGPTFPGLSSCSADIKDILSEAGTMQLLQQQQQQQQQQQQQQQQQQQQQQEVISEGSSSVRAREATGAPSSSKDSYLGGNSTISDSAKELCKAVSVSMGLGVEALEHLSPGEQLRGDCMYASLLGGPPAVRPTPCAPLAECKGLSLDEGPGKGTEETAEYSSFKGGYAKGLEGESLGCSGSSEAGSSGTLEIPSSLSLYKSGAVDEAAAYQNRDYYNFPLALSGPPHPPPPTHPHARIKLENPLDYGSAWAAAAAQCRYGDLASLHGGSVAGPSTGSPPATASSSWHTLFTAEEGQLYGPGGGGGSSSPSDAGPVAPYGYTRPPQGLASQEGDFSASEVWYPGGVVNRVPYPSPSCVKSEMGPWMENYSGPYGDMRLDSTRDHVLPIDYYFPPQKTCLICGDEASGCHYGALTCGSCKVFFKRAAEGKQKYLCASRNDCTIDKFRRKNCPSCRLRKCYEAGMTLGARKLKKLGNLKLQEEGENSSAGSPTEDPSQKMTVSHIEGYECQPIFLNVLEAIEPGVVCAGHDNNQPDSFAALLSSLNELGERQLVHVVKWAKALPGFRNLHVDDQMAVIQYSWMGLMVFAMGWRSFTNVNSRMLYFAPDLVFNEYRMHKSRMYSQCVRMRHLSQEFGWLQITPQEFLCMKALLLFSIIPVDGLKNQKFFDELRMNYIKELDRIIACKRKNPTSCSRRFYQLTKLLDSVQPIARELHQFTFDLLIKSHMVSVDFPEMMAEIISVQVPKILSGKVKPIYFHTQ
# Androgen receptor = molecular target: T2, Androgen receptor (Rattus norvegicus, UniProt P15207); assay: as §1; format: cell-based
# T2 sequence (P15207 whole entry): T1 sequence (whole entry)
# LNCaP [12] = assay: Antiproliferative activity against human LNCAP cells after 96 hrs by propidium iodide staining based fluorescence 2D monolayer assay; format: functional, cell-based
compound,measurement,setting,value
CC1(C)C(=O)N(c2ccc(C(F)(F)F)cc2)C(=O)N1c1ccc([N+](=O)[O-])c(C(F)(F)F)c1,Ratio IC50,LNCaP [1],<=5
same,pIC50,LNCaP [2],5.79
same,IC70,LNCaP [2],7.89 µM
same,pIC50,VCaP [3],4.14
same,IC70,VCaP [3],> 100 µM
same,solubility,[4],Soluble
same,pIC50,CWR22R [5],4.38
same,IC70,CWR22R [5],> 100 µM
same,pIC50,VCaP [6],7.28
same,IC70,VCaP [6],7.76 µM
same,pIC50,CWR22R [7],≤ 4.00
same,IC70,CWR22R [7],> 100 µM
same,solubility,[8],Soluble
same,pIC50,DU-145 [9],< 4.00
same,IC70,DU-145 [9],> 100 µM
same,pIC50,DU-145 [10],≤ 4.00
same,IC70,DU-145 [10],> 100 µM
same,inhibition,[11],Dose-dependent effect
same,pIC50,Androgen receptor,7.10
same,pIC50,LNCaP [12],5.67
same,IC70,LNCaP [12],9.64 µM
